Experimental data from patent publication US11098055B2, “Ester ACC inhibitors and uses thereof” (Gilead Apollo, LLC, priority 2015, dated 2021).
pIC50: −log10 of the molar value. Converted amounts (≈) assume the structure as drawn. Read-outs that look alike come from different tables or passages of the source.

Key:
[1] = tested on: Collectotrichum graminicola (Cg); assay: Growth inhibition assay of fungal pathogens; type: cell-based; conditions: 48 h, Table 4b, read-out: Concentration at 90% Inhibition Cg
Experimental: (§1) Compounds of the present invention were evaluated in a growth inhibition assay to determine the ability to control the growth of fungal pathogens, such as Botrtyis cinerea (Bc), Collectotrichum graminicola (Cg), Diplodia maydis (Dm), Fusarium moniliforme (Fm), Fusarium virguhforme (Fv), Phytophthora capsici (Pc), Rhizoctonia solani (Rs), and Septoria tritici (St). Compounds to be tested were dissolved in DMSO at 2.5 mg/ml to produce compound stock solutions (“stocks”). Stocks were diluted with DMSO by a five-fold dilution in a 96-well stock plate, and two sets of final concentrations of 50, 10, and 2 ppm or 2, 0.4, and 0.08 ppm were obtained in vitro. A set of positive controls was also prepared, with various concentrations of Soraphen (2, 0.4, and 0.08 ppm), Metalaxyl (1.1, 0.22, and 0.04 ppm), and Metconazole (2, 0.4, and 0.08 ppm or 0.2, 0.04, and 0.008 ppm) after the five-fold dilutions. Negative controls on each plate included 2% DMSO, water, and a blank (media+2% DMSO). Fungal spores were isolated from previously sub-cultured plates of Botrtyis cinerea (Bc), Collectotrichum graminicola (Cg), Diplodia maydis (Dm), Fusarium moniliforme (Fm), Fusarium virguliforme (Fv), Phytophthora capsici (Pc), and Septoria tritici (St). The isolated spores were diluted to individual concentrations with a 17% V8 liquid media. For Rhizoctonia solani (Rs) and Pythium irregulare, 1.5 mm mycelial plugs were used in place of spores and ¼ Potato Dextrose Broth (PDB) was used for dilution. The spore concentrations and plug sizes were based on growth curves generated at 48 hours for each pathogen. In a second 96-well plate, the spores or mycelial plugs, media, diluted compound solutions, and controls were combined. Once the compound was added, a true final concentration of compound in each well was measured by an OD600 reading, which adjusted for any compound precipitation that might have occurred in the well. Plate readings were repeated at both 24 and 48 hours. The blank negative control was used as a background subtraction. Additional visual ratings were performed at both 24 and 48 hours for checking on precipitation and confirming efficacy. Visual and OD600 ratings of the compounds at 48 hours were compared to the 2% DMSO negative control, and the percent of pathogen growth inhibition was determined based on those values.

Botrtyis cinerea (Bc) = assay: Growth inhibition assay of fungal pathogens; type: cell-based; conditions: 48 h, Table 4b, read-out: Concentration at 90% Inhibition Bc
Experimental: as §1

Diplodia maydis (Dm) = assay: Growth inhibition assay of fungal pathogens; type: cell-based; conditions: Stenocarpella maydis, 48 h, Table 4b, read-out: Concentration at 90% Inhibition Dm
Experimental: as §1

[2] = tested on: Phytophthora capsici (Pc); assay: Growth inhibition assay of fungal pathogens; type: cell-based; conditions: 48 h, Table 4b, read-out: Concentration at 90% Inhibition Pc
Experimental: as §1

Rhizoctonia solani (Rs) = assay: Growth inhibition assay of fungal pathogens; type: cell-based; conditions: 48 h, Table 4b, read-out: Concentration at 90% Inhibition Rs
Experimental: as §1

Septoria tritici (St) = assay: Growth inhibition assay of fungal pathogens; type: cell-based; conditions: Zymoseptoria tritici, 48 h, Table 4b, read-out: Concentration at 90% Inhibition St
Experimental: as §1

[3] = tested on: Fusarium virguliforme (Fv); assay: Growth inhibition assay of fungal pathogens; type: cell-based; conditions: 48 h, Table 4b, read-out: Concentration at 90% Inhibition Fv
Experimental: as §1

[4] = tested on: Fusarium moniliforme (Fm); assay: Growth inhibition assay of fungal pathogens; type: cell-based; conditions: Fusarium verticillioides, 48 h, read-out: Concentration at 90% Inhibition Fm
Experimental: as §1

hACC2 = hACC2 (Homo sapiens, UniProt O00763); assay: In vitro ACC2 inhibition assay (ADP-Glo), human ACC2; type: biochemical
Experimental: (§2) An exemplary procedure for the in vitro ACC inhibition assay, which can be used to determine the inhibitory action of compounds of the invention toward either human (hACC2) or fungal (fACC2) ACC2, follows. The ADP-Glo™ Kinase Assay kit from Promega was used. The ADP-Glo™ Kinase Assay is a luminescent ADP detection assay to measure enzymatic activity by quantifying the amount of ADP produced during an enzyme reaction. The assay is performed in two steps; first, after the enzyme reaction, an equal volume of ADP-Glo™ Reagent is added to terminate the reaction and deplete the remaining ATP. Second, the Kinase Detection Reagent is added to simultaneously convert ADP to ATP and allow the newly synthesized ATP to be measured using a luciferase/luciferin reaction. Luminescence can be correlated to ADP concentrations by using an ATP-to-ADP conversion curve. The detailed procedure is as follows. 50 μL of the compound being tested (600 μM in DMSO) was added to a 384-well dilution plate. The compound was diluted 1:3 in succession in DMSO for each row for 11 wells. 0.5 μL ACC2 working solution was added to 384-well white Optiplate assay plate. 0.5 μL diluted compound solution in each column from step 2 was added to assay plate, each row containing 2 replicates. For the last 2 rows, 0.5 μL negative control (DMSO) was added in one row and 0.5 μL positive control (compound I-97) in the other. The plates were incubated at room temperature for 15 minutes. 5 μL substrate working solution was added to each well to initiate reaction. Final ACC2 reaction concentrations consist of: 5 nM ACC2, 20 μM ATP, 20 μM acetyl-CoA, 12 mM NaHCO3, 0.01% Brij35, 2 mM DTT, 5% DMSO, test compound concentrations: 30 μM, 10 μM, 3.33 μM, 1.11 μM, 0.37 μM, 0.123 μM, 0.0411 μM, 0.0137 μM, 0.00457 μM, 0.00152 μM, and 0.00051 μM. Plates were incubated at room temperature for 60 minutes. 10 μL ADP glo reagent was added. Plates were incubated at room temperature for 40 minutes. 20 μL kinase detection reagent was added. Plates were incubated at room temperature for 40 minutes, and then read on a Perkin Elmer EnVision 2104 plate reader for luminescence as Relative Light Units (RLU).
(§3) Data for each concentration, as well as the positive and negative controls, were averaged, and the standard deviation calculated. Percent inhibition was calculated by the formula: 100×(average negative control−compound)/(average negative control−average positive control). The IC50 for each compound was calculated by fitting the data with a non-linear regression equation: Y=Bottom+(Top−Bottom)/(1+10^((Log IC50−X)*HillSlope)), where X is the log of compound concentration and Y is percent inhibition.

fACC2 = fACC2 (UniProt Q00955); assay: In vitro ACC2 inhibition assay (ADP-Glo), fungal ACC2; type: biochemical
Experimental: as §2, §3

ACC1 = conditions: enzyme isolated from rat, mouse, monkey and human; cited from earlier work
ACC2 = conditions: enzyme isolated from rat, mouse, monkey and human; cited from earlier work
[5] = tested on: C. parapsilosis ATCC 22019; assay: Anti-Fungal (Candida) Activity Assay, broth microtiter MIC; type: cell-based; conditions: Lodderomyces parapsilosis, ATCC22019, 48 h, 3 replicates, MIC read at 48 h
Experimental: (§4) Compounds of the present invention were evaluated in an Anti-Fungal Activity Assay. An exemplary procedure for the assay, which measures the susceptibility of various Candida species to anti-fungal compounds, follows. Compounds to be tested (including fluconazole and amphotericin B) were dissolved in DMSO to obtain a solution having a concentration of 1 mg/mL. These stock solutions were sterile filtered using a 0.22 um nylon syringe filter, then diluted in sterile water to achieve a final concentration of 128 μg/mL.
(§5) All species were grown from frozen stock by directly plating on to freshly prepared Sabouraud Dextrose agar (BD, Difco) and incubated overnight in ambient air at 35° C. for 24 h. A direct suspension was prepared in RPMI 1640+MOPS (Lonza, Biowhittaker) by taking individual colonies from the overnight cultures using sterile swabs soaked in sterile saline. The concentration of the suspension was determined using pre-determined standard curves. These suspensions were then diluted down to 5×10^3 CFU/mL to achieve a final concentration of 2.5×10^3 CFU/mL once added to the microtiter plate as per CLSI guidelines (M27-A3, Vol. 28 No. 14).
(§6) Broth microtiter MIC challenge plates were prepared following CLSI guidelines (M27-A3, Vol. 28 No. 14). The original CLSI guidelines focused on reading Candida MICs after 48 h of incubation. As reading after only 24 h offers a clear advantage of patient care, QC limits are being established for all drugs at 24 h. That being said there are no known interpretive breakpoints for amphotericin B at 24 h and the current fluconazole interpretive breakpoints are based on a 48 h reading. The MIC for the test compounds were recorded at 48 h. All MIC determinations were achieved by visually comparing the growth found in the antibiotic challenged wells to that of the growth control.

C. albicans ATCC 90028 = assay: as above; type: cell-based; conditions: ATCC90028, 48 h, 3 replicates, MIC read at 48 h
Experimental: as §4, §5, §6

C. krusei ATCC 6258 = assay: as above; type: cell-based, Candida krusei; conditions: Pichia kudriavzevii, ATCC6258, 48 h, 3 replicates, MIC read at 48 h
Experimental: as §4, §5, §6

Sequence of fACC2 (Q00955 whole entry): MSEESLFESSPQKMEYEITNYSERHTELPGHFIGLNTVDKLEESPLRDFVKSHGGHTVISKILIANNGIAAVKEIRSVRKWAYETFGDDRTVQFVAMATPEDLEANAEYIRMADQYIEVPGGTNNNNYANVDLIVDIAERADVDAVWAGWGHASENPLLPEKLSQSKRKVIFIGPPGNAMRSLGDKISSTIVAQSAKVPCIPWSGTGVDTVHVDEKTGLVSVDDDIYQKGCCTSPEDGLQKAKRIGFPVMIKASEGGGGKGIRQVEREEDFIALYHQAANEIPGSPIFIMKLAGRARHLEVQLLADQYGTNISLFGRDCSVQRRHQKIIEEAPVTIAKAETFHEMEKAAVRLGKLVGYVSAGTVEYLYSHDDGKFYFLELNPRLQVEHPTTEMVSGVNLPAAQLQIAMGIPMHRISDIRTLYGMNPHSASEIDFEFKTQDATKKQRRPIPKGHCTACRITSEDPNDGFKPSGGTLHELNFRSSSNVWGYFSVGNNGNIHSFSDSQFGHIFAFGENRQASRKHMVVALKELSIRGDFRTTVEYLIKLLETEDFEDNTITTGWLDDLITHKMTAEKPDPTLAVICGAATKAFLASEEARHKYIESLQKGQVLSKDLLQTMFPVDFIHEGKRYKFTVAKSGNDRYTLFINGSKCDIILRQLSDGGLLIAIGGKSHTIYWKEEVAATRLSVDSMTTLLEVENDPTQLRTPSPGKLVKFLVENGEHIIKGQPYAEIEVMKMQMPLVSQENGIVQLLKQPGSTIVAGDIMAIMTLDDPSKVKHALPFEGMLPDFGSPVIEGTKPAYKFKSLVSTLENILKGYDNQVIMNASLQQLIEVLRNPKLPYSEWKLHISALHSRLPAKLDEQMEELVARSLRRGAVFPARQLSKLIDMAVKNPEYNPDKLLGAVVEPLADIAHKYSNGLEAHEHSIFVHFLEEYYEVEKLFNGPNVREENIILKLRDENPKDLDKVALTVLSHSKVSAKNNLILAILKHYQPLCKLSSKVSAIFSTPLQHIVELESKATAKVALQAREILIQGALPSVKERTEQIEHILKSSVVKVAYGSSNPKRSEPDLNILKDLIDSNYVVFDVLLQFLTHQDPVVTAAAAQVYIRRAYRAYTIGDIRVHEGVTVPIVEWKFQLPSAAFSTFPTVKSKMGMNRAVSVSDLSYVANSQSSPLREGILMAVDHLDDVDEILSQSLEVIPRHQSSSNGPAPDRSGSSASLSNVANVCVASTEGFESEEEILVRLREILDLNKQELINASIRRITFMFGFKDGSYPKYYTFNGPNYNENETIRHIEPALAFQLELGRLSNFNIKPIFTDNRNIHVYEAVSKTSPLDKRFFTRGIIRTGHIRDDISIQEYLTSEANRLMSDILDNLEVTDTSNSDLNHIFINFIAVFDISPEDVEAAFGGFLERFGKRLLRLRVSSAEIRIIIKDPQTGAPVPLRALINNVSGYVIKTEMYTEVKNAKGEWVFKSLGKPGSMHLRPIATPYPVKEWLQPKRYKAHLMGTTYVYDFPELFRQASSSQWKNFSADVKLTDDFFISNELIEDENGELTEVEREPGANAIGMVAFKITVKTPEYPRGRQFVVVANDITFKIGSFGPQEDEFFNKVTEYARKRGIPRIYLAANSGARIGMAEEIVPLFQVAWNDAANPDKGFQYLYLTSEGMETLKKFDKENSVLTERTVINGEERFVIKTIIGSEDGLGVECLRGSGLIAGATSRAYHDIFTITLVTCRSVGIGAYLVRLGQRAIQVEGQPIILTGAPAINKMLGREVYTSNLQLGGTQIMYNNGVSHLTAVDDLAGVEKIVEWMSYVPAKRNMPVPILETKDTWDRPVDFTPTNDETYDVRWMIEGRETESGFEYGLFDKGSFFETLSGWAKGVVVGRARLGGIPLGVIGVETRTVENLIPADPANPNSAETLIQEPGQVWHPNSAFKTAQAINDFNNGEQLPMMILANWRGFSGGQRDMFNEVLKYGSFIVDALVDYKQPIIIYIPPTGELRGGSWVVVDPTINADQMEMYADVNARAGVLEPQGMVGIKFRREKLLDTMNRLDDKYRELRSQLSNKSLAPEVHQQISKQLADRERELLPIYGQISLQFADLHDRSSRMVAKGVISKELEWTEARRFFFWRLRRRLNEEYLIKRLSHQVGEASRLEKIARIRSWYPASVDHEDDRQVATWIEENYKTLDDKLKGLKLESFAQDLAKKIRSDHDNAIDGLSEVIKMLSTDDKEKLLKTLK
Sequence of hACC2 (O00763 whole entry): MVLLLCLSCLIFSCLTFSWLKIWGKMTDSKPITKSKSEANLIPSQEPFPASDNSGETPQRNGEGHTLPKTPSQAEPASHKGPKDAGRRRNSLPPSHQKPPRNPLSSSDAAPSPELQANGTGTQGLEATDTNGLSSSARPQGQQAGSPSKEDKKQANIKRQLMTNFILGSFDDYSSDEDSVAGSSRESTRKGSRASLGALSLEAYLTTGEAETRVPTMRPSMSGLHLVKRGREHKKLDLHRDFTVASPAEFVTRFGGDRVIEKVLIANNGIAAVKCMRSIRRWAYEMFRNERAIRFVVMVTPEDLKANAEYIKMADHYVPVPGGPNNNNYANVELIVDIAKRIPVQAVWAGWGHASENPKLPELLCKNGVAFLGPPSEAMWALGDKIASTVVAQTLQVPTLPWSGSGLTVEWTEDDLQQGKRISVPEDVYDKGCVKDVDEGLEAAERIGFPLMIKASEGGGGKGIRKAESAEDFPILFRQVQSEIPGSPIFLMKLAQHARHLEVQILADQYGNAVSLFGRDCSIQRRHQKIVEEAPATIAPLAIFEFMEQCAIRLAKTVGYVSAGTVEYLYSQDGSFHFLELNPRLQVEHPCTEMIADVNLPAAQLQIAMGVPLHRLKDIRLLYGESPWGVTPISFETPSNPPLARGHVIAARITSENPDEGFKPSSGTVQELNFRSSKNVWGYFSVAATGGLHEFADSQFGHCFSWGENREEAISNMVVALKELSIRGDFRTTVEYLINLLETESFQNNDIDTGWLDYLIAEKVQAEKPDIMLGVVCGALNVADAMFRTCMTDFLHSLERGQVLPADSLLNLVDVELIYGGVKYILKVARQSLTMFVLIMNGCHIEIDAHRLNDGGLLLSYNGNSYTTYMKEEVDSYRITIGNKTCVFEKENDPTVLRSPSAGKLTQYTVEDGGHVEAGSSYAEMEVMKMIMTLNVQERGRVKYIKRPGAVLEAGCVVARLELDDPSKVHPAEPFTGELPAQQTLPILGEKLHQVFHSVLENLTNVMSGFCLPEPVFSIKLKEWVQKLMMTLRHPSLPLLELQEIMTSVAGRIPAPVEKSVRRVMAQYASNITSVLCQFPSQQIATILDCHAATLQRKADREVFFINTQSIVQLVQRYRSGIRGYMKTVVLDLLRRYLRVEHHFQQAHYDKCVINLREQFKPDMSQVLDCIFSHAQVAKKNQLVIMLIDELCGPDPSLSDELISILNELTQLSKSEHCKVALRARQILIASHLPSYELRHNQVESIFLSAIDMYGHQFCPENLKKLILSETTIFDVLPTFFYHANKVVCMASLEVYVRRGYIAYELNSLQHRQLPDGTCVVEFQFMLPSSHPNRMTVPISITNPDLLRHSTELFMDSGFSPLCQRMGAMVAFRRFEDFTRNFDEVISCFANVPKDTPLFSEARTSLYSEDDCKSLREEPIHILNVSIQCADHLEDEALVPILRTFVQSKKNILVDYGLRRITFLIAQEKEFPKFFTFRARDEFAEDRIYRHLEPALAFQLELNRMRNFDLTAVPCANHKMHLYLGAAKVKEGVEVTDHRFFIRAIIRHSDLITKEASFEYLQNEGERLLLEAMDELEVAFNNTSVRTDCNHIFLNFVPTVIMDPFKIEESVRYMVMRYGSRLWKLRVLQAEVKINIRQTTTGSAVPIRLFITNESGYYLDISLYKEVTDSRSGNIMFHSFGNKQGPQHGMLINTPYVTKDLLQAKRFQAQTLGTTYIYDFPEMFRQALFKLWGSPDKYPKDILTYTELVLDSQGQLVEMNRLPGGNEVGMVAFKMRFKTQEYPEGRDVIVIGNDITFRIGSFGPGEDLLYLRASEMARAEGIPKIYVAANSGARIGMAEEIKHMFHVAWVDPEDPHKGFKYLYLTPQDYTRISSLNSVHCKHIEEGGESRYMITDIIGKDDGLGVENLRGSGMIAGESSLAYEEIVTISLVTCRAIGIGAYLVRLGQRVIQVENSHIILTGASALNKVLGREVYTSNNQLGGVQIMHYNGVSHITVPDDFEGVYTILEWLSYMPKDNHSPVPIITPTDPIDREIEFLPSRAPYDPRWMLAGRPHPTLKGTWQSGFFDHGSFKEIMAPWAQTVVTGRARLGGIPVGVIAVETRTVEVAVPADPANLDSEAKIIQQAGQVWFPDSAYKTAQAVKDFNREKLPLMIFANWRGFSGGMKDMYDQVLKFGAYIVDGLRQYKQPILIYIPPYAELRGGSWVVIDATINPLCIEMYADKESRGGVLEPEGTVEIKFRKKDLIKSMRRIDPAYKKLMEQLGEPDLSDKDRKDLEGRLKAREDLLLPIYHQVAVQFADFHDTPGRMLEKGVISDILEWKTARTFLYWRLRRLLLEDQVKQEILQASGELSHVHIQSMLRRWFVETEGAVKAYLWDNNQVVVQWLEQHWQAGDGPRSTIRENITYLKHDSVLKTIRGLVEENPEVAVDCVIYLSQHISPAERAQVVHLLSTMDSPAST

## CCOC(=O)c1sc2c(c1C)c(=O)n(C(C)(C)C(=O)NC(C)C)c(=O)n2CCc1cc(F)ccc1OCCC#N [Compound I-45, ethyl 1-(2-(2-cyanoethoxy)-5-fluorophenethyl)-3-(1-(isopropylamino)-2-methyl-1-oxopropan-2-yl)-5-methyl-2,4-dioxo-1,2,3,4-tetrahydro-thieno[2,3-d]pyrimidine-6-carboxylate]
[1]
  IC90: ≥ 50 µg/mL
Botrtyis cinerea (Bc)
  IC90: 10 µg/mL (≈ 17.5 µM)
Diplodia maydis (Dm)
  IC90: ≥ 50 µg/mL
[2]
  IC90: ≥ 50 µg/mL
Rhizoctonia solani (Rs)
  IC90: ≥ 50 µg/mL
Septoria tritici (St)
  IC90: ≥ 50 µg/mL
[3]
  IC90: 2 µg/mL (≈ 3.49 µM)
[4]; Table 4b
  IC90: 2 µg/mL (≈ 3.49 µM)
hACC2; Table 2b (additional results)
  pIC50: ≤ 7.40
fACC2; Table 2b (additional results)
  pIC50: 8.00 to 8.52

## O=C(c1c2ccccc2cc2ccccc12)N1CCC(N2CCC[C@@H](C(=O)N3CCOCC3)C2)CC1 [CP-640186]
ACC1
  pIC50: ~7.22
ACC2
  pIC50: ~7.22

## CCOC(=O)c1sc2c(c1C)c(=O)n([C@H](C)C(=O)N(C)C(C)C)c(=O)n2C[C@H](OCCO)c1cc(F)ccc1OC [Compound I-30, ethyl 1-((R)-2-(5-fluoro-2-methoxyphenyl)-2-(2-hydroxy-ethoxy)ethyl)-3-((R)-1-(isopropyl(methyl)amino)-1-oxopropan-2-yl)-5-methyl-2,4-dioxo-1,2,3,4-tetrahydrothieno[2,3-d]pyrimidine-6-carboxylate]
[5]; Table 3b (additional results)
  MIC: 0.25 to 1 µg/mL (≈ 0.421 to 1.68 µM)
C. albicans ATCC 90028; Table 3b (additional results)
  MIC: 1.1 to 2 µg/mL (≈ 1.85 to 3.37 µM)
hACC2; Table 2b (additional results)
  pIC50: 7.40 to 8.00
fACC2; Table 2b (additional results)
  pIC50: 8.52 to 9.52
C. krusei ATCC 6258; Table 3b (additional results)
  MIC: 0.25 to 1 µg/mL (≈ 0.421 to 1.68 µM)

## CCNC(=O)C(C)(C)n1c(=O)c2c(C)c(C(=O)OCC)sc2n(C[C@H](OC2CCOCC2)c2ccccc2OC)c1=O [Compound I-1, ethyl (R)-3-(1-(ethylamino)-2-methyl-1-oxopropan-2-yl)-1-(2-(2-methoxyphenyl)-2-((tetrahydro-2H-pyran-4-yl)oxy)ethyl)-5-methyl-2,4-dioxo-1,2,3,4-tetrahydrothieno[2,3-d]pyrimidine-6-carboxylate]
[4]; Table 4a
  IC90: ≥ 50 µg/mL
[4]; Table 4b
  IC90: ≥ 50 µg/mL
[5]; Table 3a
  MIC: 1.1 to 2 µg/mL (≈ 1.83 to 3.32 µM)
[5]; Table 3b (additional results)
  MIC: 2.1 to 4 µg/mL (≈ 3.49 to 6.65 µM)
C. albicans ATCC 90028; Table 3a
  MIC: 0.25 to 1 µg/mL (≈ 0.415 to 1.66 µM)
C. albicans ATCC 90028; Table 3b (additional results)
  MIC: 0.25 to 1 µg/mL (≈ 0.415 to 1.66 µM)
hACC2; Table 2a
  pIC50: 8.00 to 8.52
hACC2; Table 2b (additional results)
  pIC50: 8.00 to 8.52
fACC2; Table 2a
  pIC50: 8.52 to 9.22
fACC2; Table 2b (additional results)
  pIC50: 8.52 to 9.52
C. krusei ATCC 6258; Table 3a
  MIC: 0.25 to 1 µg/mL (≈ 0.415 to 1.66 µM)
C. krusei ATCC 6258; Table 3b (additional results)
  MIC: 2.1 to 4 µg/mL (≈ 3.49 to 6.65 µM)
